Key:
[1] = 298.15 K; 101.33 kPa; Liquid; Vibrating tube method
[2] = xn = mol fraction of the nth substance listed; details: 298.15 K, 101 kPa, Liquid, Vibrating tube method
[3] = refractive index (Na D-line) (dimensionless); xn = mol fraction of the nth substance listed; details: 298.15 K, 101 kPa, Liquid, Standard Abbe refractometry

COc1ccccc1 [anisole]
Details	mass density [kg/m3]
[1]	989.42

COc1ccccc1 [anisole] + CO
Details	mass density, [2] [kg/m3]	refractive index, [3]
x2 = 0.0498	985.45	1.5105
x2 = 0.1003	981.36	1.5064
x2 = 0.2003	972.63	1.4974
x2 = 0.3001	962.6	1.4865
x2 = 0.4002	950.84	1.4749
x2 = 0.4997	936.67	1.4609
x2 = 0.5999	919.46	1.445
x2 = 0.7001	898.19	1.4238
x2 = 0.8	871.05	1.398
x2 = 0.8999	835.51	1.3658
x2 = 0.95	813.27	1.3488

COc1ccccc1 [anisole] + COC(=O)OC
Details	mass density, [2] [kg/m3]	refractive index, [3]
x1 = 0.0502	1058.1	1.3759
x1 = 0.0997	1053.35	1.3847
x1 = 0.1995	1044.2	1.402
x1 = 0.2996	1035.64	1.4178
x1 = 0.3999	1027.62	1.4334
x1 = 0.4998	1020.13	1.4485
x1 = 0.5999	1013.15	1.4629
x1 = 0.6999	1006.64	1.4766
x1 = 0.8	1000.51	1.4898
x1 = 0.9003	994.65	1.5027
x1 = 0.9503	991.82	1.5087

COC(=O)OC [dimethyl carbonate]
Details	mass density [kg/m3]
[1]	1063.26

COC(=O)OC [dimethyl carbonate] + CO
Details	mass density, [2] [kg/m3]	refractive index, [3]
x2 = 0.0496	1056.77	1.3658
x2 = 0.1	1049.84	1.365
x2 = 0.1997	1034.4	1.3627
x2 = 0.3	1016.89	1.3607
x2 = 0.3999	997.15	1.3578
x2 = 0.5	974.61	1.3543
x2 = 0.5999	948.66	1.3506
x2 = 0.6999	918.36	1.3463
x2 = 0.7999	882.55	1.341
x2 = 0.9	839.54	1.3346
x2 = 0.9499	814.64	1.331

CO [methanol]
Details	mass density [kg/m3]
[1]	786.59

Oc1ccccc1 [phenol]
Details	mass density [kg/m3]
[1]	1058.51
